Series [1] is described as follows: Blood clearance of 67Ga (external blood loop), clearing agent given six hours after radiopharmaceutical. To be noted: for % Decrease in Blood Activity: 67Ga blood activity, clearing agent six hours after injection of radiopharmaceutical; for Net Decrease in blood activity / % Increase in Blood Activity / change in blood activity (in words): clearing agent six hours after radiopharmaceutical; for % Increase in Blood Activity: rise following the initial drop. The class given is in vivo, male Sprague Dawley rats. Also noted: % Increase in Blood Activity / Net Decrease in blood activity / % Decrease in Blood Activity: concentration or dose not given beside the values.

Series [2] is described as follows: Imaging of 67Ga distribution in non-tumored rats, clearing agent six hours post dosing. The class given is in vivo, male Sprague Dawley rats. An excerpt: Initial studies used non-tumored male Sprague Dawley rats weighing between 250 and 300 grams. […] In all imaging studies, the animals were anesthetized by intraperitoneal injection of urethane (1 gm/Kg), and the left external jugular vein cannulated as a dosing site. The animals were then positioned under the detection of the γ-camera (Union Carbide; CLEON 720 Large Field Gamma Camera coupled with a CLEON 110 Image Processor) and images were obtained periodically.

Series [3] can be described thus: Blood clearance of 67Ga (external blood loop), clearing agent given two hours after radiopharmaceutical. The class given is in vivo, male Sprague Dawley rats. As for the experimental part:
Relative tissue concentrations are monitored by external imaging.
For blood clearance studies, male Sprague Dawley rats weighing 250-300 grams were used. The animals were anesthetized by peritoneal injection of an aqueous solution of urethan (1 gm/Kg). The right carotid artery and left jugular vein were exposed and an external blood loop (PE-50 tubing; volume.perspectiveto.0.14 ml) was inserted between the vessels. […] The right external jugular vein was then exposed and cannulated as an injection site. The animal was placed in a lead cradle and the blood loop inserted into the shielded well of a sodium iodide.thallium crystal. The animal received an injection of carrier-free gallium citrate (100-120 μCi) via the jugular cannula. […] Six hours post injection, the animal received a second injection containing one of the clearing agents (.perspectiveto.7.2 mmole/Kg). In subsequent experiments, clearing agents were administered two hours after or simultaneously with the radioactive dose.

The subject of series [4] is 5123C hepatoma. As to the kind of experiment: Imaging of 67Ga distribution in tumored rats, clearing agent two hours after radiopharmaceutical. The class given is in vivo, male Buffalo rats. The method, then:
FIGS. 3A-3C are scans (Union Carbide Cleon model 720 large field gamma camera) of Buffalo rats bearing implanted 5123C hepatomas.
At this point, the rat on the left received carrier gallium citrate (3.3 mg/Kg) and the rat on the right received indium citrate (2.1 mg/Kg).
Initial studies used non-tumored male Sprague Dawley rats weighing between 250 and 300 grams. Subsequent studies in tumored rats used male Buffalo rats bearing a 5123C hepatoma (The tumor line was initiated from donor animals donated by Drs. R. L. Hayes and B. Byrd of the Oak Ridge Associated Universities). In all imaging studies, the animals were anesthetized by intraperitoneal injection of urethane (1 gm/Kg), and the left external jugular vein cannulated as a dosing site. The animals were then positioned under the detection of the γ-camera (Union Carbide; CLEON 720 Large Field Gamma Camera coupled with a CLEON 110 Image Processor) and images were obtained periodically.
When the clearing agent was given two hours post radiopharmaceutical dosing, there were significant changes in gallium-67 distribution (FIG. 3). […] The results from use of indium citrate were somewhat more dramatic in that the activity is greatly diminished throughout the soft tissue regions. […] The most significant distributional change, however, is the obvious increase in tumor activity. […] To test this hypothesis, indium citrate was given with gallium-67 citrate as a single solution. […] Twenty minutes after the mixed dose is given, there is little activity outside the kidneys, bladder, tumor and bone. After two hours, there is essentially no activity in the animal other than in the above mentioned regions.

The conditions of series [5]: relatively large doses; cited from earlier work.
For series [6], the system named is 5123C hepatoma. As to the kind of experiment: Imaging of 67Ga distribution in tumored rats, clearing agent six hours after radiopharmaceutical.
For series [7] the following is noted: cited from earlier work.
For series [8] the following is noted: in vivo; cited from earlier work.
For series [9] the following is noted: versus gallium alone; cited from earlier work.
Series [10] is described as follows: Blood activity-time curve of carrier-free gallium-67 citrate, no clearing agent. The settings on record: single i.v. The class given is in vivo, normal Sprague Dawley rat. An excerpt: In this study, an external blood-loop technique (Int J of Appl Radiat Isot 29: 189-190, 1978) is used to monitor blood activity of the radiopharmaceutical as a function of time. Relative tissue concentrations are monitored by external imaging.
For blood clearance studies, male Sprague Dawley rats weighing 250-300 grams were used. The animals were anesthetized by peritoneal injection of an aqueous solution of urethan (1 gm/Kg). The right carotid artery and left jugular vein were exposed and an external blood loop (PE-50 tubing; volume.perspectiveto.0.14 ml) was inserted between the vessels. Blood was diverted from the artery, through the loop, and back to the animal via the vein (Int J of Appl Radiat Isot 29: 189-190, 1978). The right external jugular vein was then exposed and cannulated as an injection site. The animal was placed in a lead cradle and the blood loop inserted into the shielded well of a sodium iodide.thallium crystal. The animal received an injection of carrier-free gallium citrate (100-120 μCi) via the jugular cannula. Blood activity within the loop was continuously monitored as a function of time using a Packard Model 9012 Multi-channel Analyzer/Multi-scaler system (Packard Instrument Co., Downersville, Ill.). Six hours post injection, the animal received a second injection containing one of the clearing agents (.perspectiveto.7.2 mmole/Kg). […]

For series [11] the following is noted: cited from earlier work. The source holds these as a separate data set.
Series [12] concerns induced abscesses. To be noted: rabbits bearing induced abscesses; cited from earlier work.
Where [13] appears, read: clearing agent two hours after radiopharmaceutical.
[14] abbreviates: clearing agent two hours post radiopharmaceutical, gallium citrate 3 mg/Kg, […] 2.1 mg/Kg.

As to `CC(O)C(=O)[O][Al]([O]C(=O)C(C)O)[O]C(=O)C(C)O` (centres unmarked) [Aluminum, aluminum lactate], in [1], the “% Decrease in Blood Activity” value is reported as 9%, the “Net Decrease in blood activity” value came to 6% and the “% Increase in Blood Activity” value was found to be 3%. For the same compound, in [2], the “redistribution of radioactivity (imaging)” value was “no significant redistribution of the radioactivity”.
On to `O=C([O-])CC(O)(CC(=O)[O-])C(=O)[O-].[Ga+3]` [Gallium, gallium citrate], for which, in series [1], the “% Decrease in Blood Activity” value is listed as 40%, the “Net Decrease in blood activity” value is 25%, the “change in blood activity (in words)” value is on record as “decrease very rapidly” and the “% Increase in Blood Activity” value is listed as 15%. Further, in series [1] (listed as non-radioactive gallium), the “% Decrease in Blood Activity” value is listed as “approximately 40%”. The “blood activity reduction vs no clearing agent” value in series [1] (eight hours post radiopharmaceutical dosing, gallium 3.3 mg/Kg at six hours) is recorded as “approximately 25%”. In addition, in series [3] (setting [13]), the blood activity cleared was 78% and the “subsequent rise in blood activity (in words)” value is “characteristic rise in activity”. Besides, in series [3] (two hours after radiopharmaceutical, gallium 3.3 mg/Kg), the “net clearance of blood activity” value is recorded as 70%. In addition, the “redistribution of radioactivity (imaging)” value in series [2] is “shifted the radioactivity out of the blood/soft tissue regions and into the kidneys and the bladder”. Further, in series [4] (setting [14]), the “clearing of soft tissue / abdominal activity (imaging)” value was “some clearing in the upper abdomen and in regions of the lower abdomen”; the “tumor activity (imaging)” value is “little loss of activity from the tumor region”. For the same compound, the “activity bound within tumors (imaging, summary)” value in [4] (moderate doses of carrier gallium, […] two hours after radiopharmaceutical) is listed as “obviously affected”. Also, in series [5], the “effect on blood and tumor activity” value is on record as “decrease blood activity without significantly reducing tumor activity”. Further, the “redistribution of radioactivity outside tumor (imaging)” value in series [6] (gallium citrate 3 mg/Kg) is “less dramatic effect”. Besides, the “loss of activity from the tumor (imaging)” value in series [6] (gallium citrate 3 mg/Kg, compared with high dose) is “much less”. Moreover, in series [6] (gallium citrate 15 mg/Kg), the “redistribution of radioactivity outside tumor (imaging)” value is listed as “obvious redistributions of radioactivity” and the “tumor activity (imaging)” value is on record as “tumor activity was observed to decrease”.
As to `O=C([O-])CC(O)(CC(=O)[O-])C(=O)[O-].[Sc+3]` [Scandium citrate], the “tumor to blood and tumor to tissue ratios” value in series [7] (gallium-67 and scandium citrates injected simultaneously) was “extremely high tumor to blood and tumor to tissue ratios”. The “effect upon gallium binding in tumors” value in series [7] (in vivo) is recorded as “little or no effect upon gallium binding in tumors”. The hemolytic anemia entry in [8] is “severe hemolytic anemia”.
In the case of `CC(=O)[O-].CC(=O)[O-].CC(=O)[O-].[Tl+3]` [Thallium, thallium triacetate], in series [1], the “% Decrease in Blood Activity” value is on record as 0%, the “Net Decrease in blood activity” value was 0%, the “change in blood activity (in words)” value is reported as “no change in blood activity” and the “% Increase in Blood Activity” value worked out at 0%. The “redistribution of radioactivity (imaging)” value in series [2] is recorded as “no significant redistribution of the radioactivity”.
On to `CC(=O)N(O)CCCCCNC(=O)CCC(=O)N(O)CCCCCNC(=O)CCC(=O)N(O)CCCCCN` [desferoxamine], for which, in series [9], the “renal elimination rate of gallium desferoxamine complex” value was “rate greater than that observed for gallium alone”.
For the compound `O=C([O-])CC(O)(CC(=O)[O-])C(=O)[O-].[67Ga+3]` [gallium-67 citrate], the “t1/2 of very rapid component of blood curve” value in [10] was determined as 12 s. In addition, the “time to completion of rapid distribution process” value in series [10] (after dosing) is listed as “four to six”. Also, the “time of maximum gallium activity in tumors” value in series [11] (after intravenous administration) is “eighteen”. Moreover, in series [11] (given in very low doses), the “plasma / blood and soft tissue protein binding” value is “extensively bound”. Moreover, the “clearing from blood and soft tissue binding sites” value in series [11] (in vivo) was “slow process”. Moreover, the radiation dose result in [11] (prolonged retention of 67Ga in the body) is “relatively high radiation dose”.
In the case of iron dextran, the “clearing of gallium and abscess uptake” value in [12] is listed as “clearing of gallium with enhanced abscess uptake of gallium”.

The record behind these values is patent publication US4448763A, “Alteration of gallium biodistribution using indium complexes for enhanced early imaging” (priority 1980, dated 1984).
